Experimental data: ChEMBL document CHEMBL1921749, “5-Lipoxygenase-activating protein (FLAP) inhibitors. Part 4: development of 3-[3-tert-butylsulfanyl-1-[4-(6-ethoxypyridin-3-yl)benzyl]-5-(5-methylpyridin-2-ylmethoxy)-1H-indol-2-yl]-2,2-dimethylpropionic acid (AM803), a potent, oral, once daily FLAP inhibitor” (J Med Chem, 2011)
Values belong to the compound of their own block, whether it stands above or below them.

Experiments:
[1] = target: T1, Arachidonate 5-lipoxygenase-activating protein (Homo sapiens) (UniProt P20292); assay: Ratio of IC50 for FLAP in human whole blood assessed as inhibition of calcium ionophore A23187-induced LTB4 production preincubated for 15 mins to IC50 for FLAP in human whole blood assessed as inhibition of calcium ionophore A23187-induced LTB4 production preincubated for 5 hrs
T1 sequence (whole entry): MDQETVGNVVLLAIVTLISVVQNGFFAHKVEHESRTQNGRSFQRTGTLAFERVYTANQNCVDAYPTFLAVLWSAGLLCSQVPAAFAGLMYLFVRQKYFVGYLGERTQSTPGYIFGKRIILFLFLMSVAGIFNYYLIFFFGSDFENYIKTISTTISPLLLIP

[2] = target: T2, Arachidonate 5-lipoxygenase-activating protein (Homo sapiens, UniProt P20292); assay: Displacement of [3H]-3-[5-(pyrid-2-ylmethoxy)-3-tert-butylthio-1-benzylindol-2-yl]-2,2-dimethylpropionic acid from FLAP in human polymorphonuclear cell membranes after 1 hr by scintillation counting
T2 sequence (P20292 whole entry): T1 sequence (whole entry)

[3] = target: T2, Arachidonate 5-lipoxygenase-activating protein; assay: Inhibition of FLAP in human peripheral leukocytes assessed as inhibition of calcium ionophore A23187-induced LTB4 production after 10 mins by ELISA; format: cell-based
[4] = target: T2, Arachidonate 5-lipoxygenase-activating protein; assay: Inhibition of FLAP in human whole blood assessed as inhibition of calcium ionophore A23187-induced LTB4 production preincubated for 5 hrs by ELISA
[5] = target: T2, Arachidonate 5-lipoxygenase-activating protein; assay: Inhibition of FLAP in human whole blood assessed as inhibition of calcium ionophore A23187-induced LTB4 production preincubated for 15 mins by ELISA
[6] = Oral bioavailability in Sprague-Dawley rat at 10 mg/kg; format: ADME, organism-based; conditions: in vivo
[7] = Clearance in Sprague-Dawley rat at 2 mg/kg, iv; format: ADME, organism-based; design: dose 2 mg/kg, route intravenous; conditions: in vivo
[8] = AUC in Sprague-Dawley rat at 10 mg/kg, po; format: ADME, organism-based; design: dose 10 mg/kg, route oral; conditions: plasma
[9] = Terminal half life in Sprague-Dawley rat at 2 mg/kg, iv; format: ADME, organism-based; design: dose 2 mg/kg, route intravenous; conditions: in vivo, read-out: beta t1/2 (converted)
[10] = Cmax in Sprague-Dawley rat at 10 mg/kg, po; format: ADME, organism-based; design: dose 10 mg/kg, route oral; conditions: in vivo
[11] = Volume of distribution at steady state in Sprague-Dawley rat at 2 mg/kg, iv; format: ADME, organism-based; design: dose 2 mg/kg, route intravenous; conditions: in vivo, read-out: Vdss
Cytochrome P450 3A4 = Cytochrome P450 3A4 (Homo sapiens, UniProt P08684); assay: Inhibition of human CYP3A4; format: ADME
[12] = target: T3, Prostaglandin G/H synthase 1 (Homo sapiens, UniProt P23219); assay: Inhibition of COX1-mediated TXB2 production in human whole blood after 30 mins by competitive enzyme immunoassay
Cytochrome P450 2D6 = Cytochrome P450 2D6 (Homo sapiens, UniProt P10635); assay: Inhibition of human CYP2D6; format: ADME
Cytochrome P450 2C9 = Cytochrome P450 2C9 (Homo sapiens, UniProt P11712); assay: Inhibition of human CYP2C9; format: ADME
[13] = target: T2, Arachidonate 5-lipoxygenase-activating protein; assay: Inhibition of FLAP in human peripheral leukocytes assessed as inhibition of calcium ionophore A23187-induced LTB4 production after 10 mins by ELISA in presence of 0.5% human serum albumin; format: cell-based
[14] = target: T2, Arachidonate 5-lipoxygenase-activating protein; assay: Inhibition of FLAP in human peripheral leukocytes assessed as inhibition of calcium ionophore A23187-induced LTB4 production after 3 hr by ELISA in presence of 0.5% human serum albumin; format: cell-based
[15] = target: T2, Arachidonate 5-lipoxygenase-activating protein; assay: Inhibition of FLAP in human whole blood assessed as inhibition of calcium ionophore A23187-induced LTB4 production preincubated for 11 hrs by ELISA
[16] = target: T2, Arachidonate 5-lipoxygenase-activating protein; assay: Inhibition of FLAP in human peripheral leukocytes assessed as inhibition of calcium ionophore A23187-induced LTB4 production after 5 mins by ELISA in absence of human serum albumin; format: cell-based
[17] = target: T2, Arachidonate 5-lipoxygenase-activating protein; assay: Inhibition of FLAP in human peripheral leukocytes assessed as inhibition of calcium ionophore A23187-induced LTB4 production after 1 hr by ELISA in absence of human serum albumin; format: cell-based
[18] = target: T3, Prostaglandin G/H synthase 1; assay: Inhibition of COX1-mediated TXB2 production in human whole blood after 15 mins by competitive enzyme immunoassay
[19] = target: T3, Prostaglandin G/H synthase 1; assay: Inhibition of COX1-mediated TXB2 production in human whole blood after 5 hrs by competitive enzyme immunoassay
[20] = target: T4, Arachidonate 5-lipoxygenase-activating protein (Rattus norvegicus, UniProt P20291); assay: Inhibition of FLAP in rat whole blood assessed as inhibition of calcium ionophore A23187-induced LTB4 production preincubated for 4 hrs by ELISA; format: tissue-based
T4 sequence (P20291 whole entry): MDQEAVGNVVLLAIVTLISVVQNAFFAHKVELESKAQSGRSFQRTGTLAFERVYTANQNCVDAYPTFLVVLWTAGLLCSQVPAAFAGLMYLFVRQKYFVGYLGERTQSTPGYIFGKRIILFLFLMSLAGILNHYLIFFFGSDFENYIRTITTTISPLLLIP

[21] = target: T4, Arachidonate 5-lipoxygenase-activating protein; assay: Inhibition of FLAP in rat whole blood assessed as inhibition of calcium ionophore A23187-induced LTB4 production preincubated for 15 mins by ELISA; format: tissue-based

T3 sequence (P23219 whole entry): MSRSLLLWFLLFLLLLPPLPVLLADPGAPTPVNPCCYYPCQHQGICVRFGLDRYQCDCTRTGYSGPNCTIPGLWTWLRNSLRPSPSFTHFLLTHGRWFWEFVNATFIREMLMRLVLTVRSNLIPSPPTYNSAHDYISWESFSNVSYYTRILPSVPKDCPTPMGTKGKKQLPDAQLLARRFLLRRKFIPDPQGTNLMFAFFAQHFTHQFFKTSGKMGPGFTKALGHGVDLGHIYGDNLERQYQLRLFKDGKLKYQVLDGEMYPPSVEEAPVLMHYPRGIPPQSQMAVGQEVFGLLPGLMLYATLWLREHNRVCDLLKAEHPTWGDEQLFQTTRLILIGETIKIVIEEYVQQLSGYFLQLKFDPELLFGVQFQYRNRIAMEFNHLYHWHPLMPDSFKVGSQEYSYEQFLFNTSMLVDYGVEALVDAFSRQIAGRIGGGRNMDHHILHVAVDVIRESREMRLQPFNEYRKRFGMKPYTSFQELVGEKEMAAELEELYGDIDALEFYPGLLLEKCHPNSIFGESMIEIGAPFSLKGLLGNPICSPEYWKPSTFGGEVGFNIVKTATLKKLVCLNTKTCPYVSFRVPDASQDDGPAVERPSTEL
Sequence of Cytochrome P450 2D6 (P10635 whole entry): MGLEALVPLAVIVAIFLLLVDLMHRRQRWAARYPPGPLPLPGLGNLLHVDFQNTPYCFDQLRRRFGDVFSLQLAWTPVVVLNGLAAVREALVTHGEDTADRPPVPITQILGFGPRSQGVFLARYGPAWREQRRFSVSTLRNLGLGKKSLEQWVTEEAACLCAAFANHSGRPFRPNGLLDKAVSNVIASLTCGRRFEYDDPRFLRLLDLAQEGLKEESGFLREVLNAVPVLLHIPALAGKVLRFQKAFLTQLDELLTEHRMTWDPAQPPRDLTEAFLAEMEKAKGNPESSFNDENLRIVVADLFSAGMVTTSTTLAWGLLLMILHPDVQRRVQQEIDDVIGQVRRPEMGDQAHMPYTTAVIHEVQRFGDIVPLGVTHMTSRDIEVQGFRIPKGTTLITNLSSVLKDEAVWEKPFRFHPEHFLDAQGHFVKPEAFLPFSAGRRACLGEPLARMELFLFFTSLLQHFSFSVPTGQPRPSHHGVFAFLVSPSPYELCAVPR
Sequence of Cytochrome P450 2C9 (P11712 whole entry): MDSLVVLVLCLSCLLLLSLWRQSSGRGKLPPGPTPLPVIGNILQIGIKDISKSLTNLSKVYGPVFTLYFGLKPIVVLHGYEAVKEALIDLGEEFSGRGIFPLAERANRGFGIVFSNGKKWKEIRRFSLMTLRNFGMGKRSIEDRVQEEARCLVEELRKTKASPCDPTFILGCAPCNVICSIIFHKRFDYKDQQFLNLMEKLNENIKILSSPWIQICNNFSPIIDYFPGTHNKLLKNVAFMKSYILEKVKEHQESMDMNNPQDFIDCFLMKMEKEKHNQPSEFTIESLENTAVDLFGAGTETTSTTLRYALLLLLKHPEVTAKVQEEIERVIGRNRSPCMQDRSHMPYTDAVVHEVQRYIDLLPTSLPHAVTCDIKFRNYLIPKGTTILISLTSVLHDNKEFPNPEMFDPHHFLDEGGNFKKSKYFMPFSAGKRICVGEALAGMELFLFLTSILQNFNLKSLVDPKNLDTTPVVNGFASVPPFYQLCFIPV
Sequence of Cytochrome P450 3A4 (P08684 whole entry): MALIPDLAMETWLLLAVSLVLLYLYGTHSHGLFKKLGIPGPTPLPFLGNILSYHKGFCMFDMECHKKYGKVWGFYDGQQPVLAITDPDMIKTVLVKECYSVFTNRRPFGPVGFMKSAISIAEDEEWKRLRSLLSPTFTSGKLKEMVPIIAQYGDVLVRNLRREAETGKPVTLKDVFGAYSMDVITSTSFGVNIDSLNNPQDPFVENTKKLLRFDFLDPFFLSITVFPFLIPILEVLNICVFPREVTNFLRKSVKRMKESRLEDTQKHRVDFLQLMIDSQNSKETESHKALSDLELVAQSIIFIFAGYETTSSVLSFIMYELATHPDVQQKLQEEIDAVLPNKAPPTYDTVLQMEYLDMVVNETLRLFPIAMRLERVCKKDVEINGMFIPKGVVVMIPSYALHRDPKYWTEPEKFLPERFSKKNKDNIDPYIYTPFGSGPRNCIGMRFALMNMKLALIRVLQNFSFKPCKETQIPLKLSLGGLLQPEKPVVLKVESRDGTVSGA

SMILES: Cc1ccc(COc2ccc3c(c2)c(SC(C)(C)C)c(CC(C)(C)C(=O)[O-])n3Cc2ccc(-c3ccc(C)cn3)cc2)nc1.[Na+]
bioavailability [6]: 40%
clearance [7]: 3 mL/min/kg
AUC [8]: 26000 ng·h/mL
half-life [9]: 1 h
Cmax [10]: 14.6 µM
Vd [11]: 0.16 L/kg

SMILES: COc1cnc(-c2ccc(Cn3c(CC(C)(C)C(=O)O)c(SC(C)(C)C)c4cc(OCc5ccc(C)cn5)ccc43)cc2)nc1
IC50 (Cytochrome P450 3A4): 8800 nM
IC50 [3]: 0.6 nM
IC50 [4]: 81 nM
IC50 [5]: 161 nM
IC50 [12]: 25000 nM
IC50 (Cytochrome P450 2D6): > 50000 nM
IC50 (Cytochrome P450 2C9): 4500 nM

SMILES: Cc1ccc(COc2ccc3c(c2)c(SC(C)(C)C)c(CC(C)(C)C(=O)O)n3Cc2ccc(-c3ccc(=O)[nH]c3)cc2)nc1
Ratio IC50 [1]: 8
IC50 [2]: 8.3 nM
IC50 [3]: 94 nM
IC50 [4]: 1280 nM
IC50 [5]: 10000 nM

SMILES: Cc1ccc(COc2ccc3c(c2)c(SC(C)(C)C)c(CC(C)(C)C(=O)O)n3Cc2ccc(-c3ccc(C)cn3)cc2)nc1
IC50 (Cytochrome P450 3A4): 8500 nM
IC50 [2]: 2.2 nM
IC50 [3]: 0.5 nM
IC50 [4]: 130 nM
IC50 [5]: 283 nM
IC50 (Cytochrome P450 2D6): > 50000 nM
IC50 (Cytochrome P450 2C9): 12000 nM

SMILES: CC(C)c1ccc2c(c1)c(SC(C)(C)C)c(CC(C)(C)C(=O)O)n2Cc1ccc(Cl)cc1
IC50 [13]: 19 nM
IC50 [14]: 27 nM
IC50 [4]: 1100 nM
IC50 [5]: 1400 nM
IC50 [15]: 1000 nM
IC50 [16]: 2.2 nM
IC50 [17]: 5.7 nM

SMILES: COc1cnc(-c2ccc(Cn3c(CC(C)(C)C(=O)[O-])c(SC(C)(C)C)c4cc(OCc5ccc(C)cn5)ccc43)cc2)nc1.[Na+]
bioavailability [6]: 100%
clearance [7]: 3.1 mL/min/kg
AUC [8]: 63000 ng·h/mL
half-life [9]: 1.7 h
Cmax [10]: 30.6 µM
Vd [11]: 0.18 L/kg

Further lines, results first:

Ratio IC50 [1]: 2
IC50 [2]: 7.6 nM
IC50 [3]: 0.7 nM
IC50 [4]: 289 nM
IC50 [5]: 747 nM
SMILES: COc1ccc(-c2ccc(Cn3c(CC(C)(C)C(=O)O)c(SC(C)(C)C)c4cc(OCc5ccc6cc(F)ccc6n5)ccc43)cc2)cn1

IC50 [2]: 1.7 nM
IC50 [3]: 0.5 nM
IC50 [4]: 87 nM
IC50 [5]: 328 nM
IC50 [18]: 12300 nM
IC50 [19]: 17300 nM
SMILES: COc1ccc(-c2ccc(Cn3c(CC(C)(C)C(=O)O)c(SC(C)(C)C)c4cc(OCc5ccc(C)cn5)ccc43)cc2)cn1

IC50 [13]: 66 nM
IC50 [2]: 1.9 nM
IC50 [14]: 12 nM
IC50 [3]: 0.5 nM
IC50 [4]: 108 nM
IC50 [5]: 536 nM
IC50 [20]: 10 nM
IC50 [21]: 117 nM
IC50 [15]: 80 nM
IC50 [16]: 1 nM
IC50 [17]: 1 nM
SMILES: CC(C)(C)Sc1c(CC(C)(C)C(=O)O)n(Cc2ccc(Cl)cc2)c2ccc(OCc3ccc4ccccc4n3)cc12 [QUIFLAPON SODIUM]
